According to patent publication US4436751A, “Nitrobenzyl monates antibacterial compounds” (Beecham Group Limited, priority 1980, dated 1984):
Values after ≈ are worked out from the molar mass of the structure shown.

Key:
Assay type in all cases: cell-based
[1] = test system: M. hyosynoviae ATOC 25591; assay: Anti-mycoplasmal MIC in vitro, Friis broth agarose (Table 1); conditions: 144 h
[2] = test system: M. suipneumoniae JF 435; assay: as above; conditions: Mesomycoplasma hyopneumoniae, JF435, 144 h
[3] = test system: M. suipneumoniae NB12; assay: as above; conditions: Mesomycoplasma hyopneumoniae, NB12, 144 h
[4] = test system: Staph. aureus Russell; assay: Human bacteria MIC, nutrient agar with chocolated horse blood (Table 3); conditions: Staphylococcus aureus, 18 h
Procedure: (§1) The values were determined by serial dilutions in nutrient agar with 5% chocolated horse blood after incubations for 18 hours at 37° C.

[5] = test system: E. Coli NCTC 10418; assay: as above; conditions: Escherichia coli, NCTC10418, 18 h
Procedure: as §1

[6] = test system: Pasteurella multocida 1633; assay: as above; conditions: Pasteurella multocida, 1633, 18 h
Procedure: as §1

[7] = test system: Sarcina lutea 8340; assay: as above; conditions: Micrococcus luteus, 8340, 18 h
Procedure: as §1

[8] = test system: Corynebacterium xerosis 9755; assay: as above; conditions: Corynebacterium xerosis, 9755, 18 h
Procedure: as §1

[9] = test system: Strep. pyogenes R80/421-A; assay: as above; conditions: Streptococcus pyogenes, R80/421A, 18 h
Procedure: as §1

[10] = test system: Strep. faecalis 1; assay: as above; conditions: Enterococcus faecalis, 1, 18 h
Procedure: as §1

[11] = test system: P. mirabilis 889; assay: as above; conditions: Proteus mirabilis, 889, 18 h
Procedure: as §1

[12] = test system: Ps. aeruginosa NCTC 10662; assay: as above; conditions: Pseudomonas aeruginosa, NCTC10662, 18 h
Procedure: as §1

[13] = test system: Staph. aureus Oxford; assay: as above; conditions: Staphylococcus aureus, 18 h
Procedure: as §1

[14] = test system: Staph. aureus W2827; assay: as above; conditions: Staphylococcus aureus, W2827, 18 h
Procedure: as §1

[15] = test system: Bacillus subtilis 6633; assay: as above; conditions: Bacillus subtilis, 6633, 18 h
Procedure: as §1

[16] = test system: K. aerogenes A; assay: as above; conditions: Klebsiella aerogenes, 18 h
Procedure: as §1

[17] = test system: Haemophilus influenzae Q1; assay: as above; conditions: Haemophilus influenzae, Q1, 18 h
Procedure: as §1

[18] = test system: M. dispar RCTC 10125; assay: Anti-mycoplasmal MIC in vitro, Friis broth agarose (Table 1); conditions: 144 h
[19] = test system: M. hyorhinis ATCC 23234; assay: as above; conditions: Mesomycoplasma hyorhinis, ATCC23234, 144 h
[20] = test system: Past. multocida PA1; assay: Veterinary bacteria MIC, Diagnostic Sensitivity Test Agar (Table 2); conditions: Pasteurella multocida, PA1, 18 h
Procedure: (§2) The values were determined using a two fold serial dilutions in Diagnostic Sensitivity Test Agar with an inoculum of 10^4 organisms and incubation for 18 hours at 37° C.

[21] = test system: E. Coli NCTC 10418; assay: as above; conditions: Escherichia coli, NCTC10418, 18 h
Procedure: as §2

[22] = test system: Bord. bronchiseptica BO8; assay: as above; conditions: Bordetella bronchiseptica, BO8, 18 h
Procedure: as §2

[23] = test system: Past. haemolytica PA5; assay: as above; conditions: Mannheimia haemolytica, PA5, 18 h
Procedure: as §2

[24] = test system: Strep. uberis SPO1; assay: as above; conditions: Streptococcus uberis, SPO1, 18 h
Procedure: as §2

[25] = test system: Bord. bronchiseptica BO9; assay: as above; conditions: Bordetella bronchiseptica, BO9, 18 h
Procedure: as §2

[26] = test system: M. bovigenitalium ATOC 14173; assay: Anti-mycoplasmal MIC in vitro, Friis broth agarose (Table 1); conditions: 144 h
[27] = test system: M. suipneumoniae OCD 1; assay: as above; conditions: Mesomycoplasma hyopneumoniae, OCD1, 144 h

C/C(=C\C(=O)OCc1cc([N+](=O)[O-])cc([N+](=O)[O-])c1C)CC1OCC(CC2OC2C(C)C(C)O)C(O)C1O (stereo not drawn) [Example 7, 3,5-dinitro-2-methylbenzyl monate A]
MIC [1]: 0.1 µg/mL (≈ 0.186 µM)
MIC [2]: 0.25 µg/mL (≈ 0.464 µM)
MIC [3]: 0.25 µg/mL (≈ 0.464 µM)
MIC [4]: 1 µg/mL (≈ 1.86 µM)
MIC [5]: > 100 µg/mL
MIC [6]: 5 µg/mL (≈ 9.28 µM)
MIC [7]: > 100 µg/mL
MIC [8]: > 100 µg/mL
MIC [9]: 0.25 µg/mL (≈ 0.464 µM)
MIC [10]: > 100 µg/mL
MIC [11]: > 100 µg/mL
MIC [12]: > 100 µg/mL
MIC [13]: 1 µg/mL (≈ 1.86 µM)
MIC [14]: 2.5 µg/mL (≈ 4.64 µM)
MIC [15]: 1 µg/mL (≈ 1.86 µM)
MIC [16]: > 100 µg/mL
MIC [17]: 1 µg/mL (≈ 1.86 µM)
MIC [18]: 0.05 µg/mL (≈ 0.0928 µM)
MIC [19]: 0.1 µg/mL (≈ 0.186 µM)
MIC [20]: 2.5 µg/mL (≈ 4.64 µM)
MIC [21]: > 80 µg/mL
MIC [22]: 40 µg/mL (≈ 74.3 µM)
MIC [23]: 5 µg/mL (≈ 9.28 µM)
MIC [24]: 0.156 µg/mL (≈ 0.29 µM)
MIC [25]: 10 µg/mL (≈ 18.6 µM)
MIC [26]: ≤ 0.1 µg/mL
MIC [27]: 0.25 µg/mL (≈ 0.464 µM)
